These results are taken from PubChem BioAssay (NCI).

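Five concentrations, 48 hours, 96-well plates. The concentration for full growth arrest is given as TGI.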

Test in all cases: NCI tumour cell line growth inhibition, 48 h
Assay [1] relates to UO-31 renal.
Assay [2] relates to KM12 colon.
Assay [3] concerns LOX IMVI melanoma.
Assay [4] deals with K-562 leukemia.
Assay [5] has as its system SK-MEL-5 melanoma.
In assay [6] the test system is SR leukemia.
The test system of assay [7] is COLO 205 colon.
Assay [8] relates to NCI-H460 lung.
For assay [9], the system named is HT29 colon.
The subject of assay [10] is M14 melanoma.
The subject of assay [11] is SF-295 CNS.
Assay [12] deals with SK-MEL-28 melanoma.
The test system of assay [13] is OVCAR-4 ovarian.
Assay [14] has as its system HS 578T breast.
Assay [15] relates to IGROV1 ovarian.
Assay [16] deals with EKVX NSCLC.
In assay [17] the test system is UACC-257 melanoma.
Assay [18] concerns A549 NSCLC.
The subject of assay [19] is A498 renal.

As to `CCOC(=O)Nc1sc2c(c1C#N)CC(C)CC2` (configuration not stated), the TGI in assay [1] was 46.1 µM; in assay [2] it was 36 µM; in assay [3], 54.5 µM; in assay [4] it was > 100 µM; in [5] it was 16.6 µM; in [6] it was 18.4 µM. Further, the TGI is 18.2 µM in assay [7]; 17.3 µM in [8]; 10.9 µM in assay [9]; 17.4 µM in assay [10]; > 100 µM in assay [11]; > 100 µM in [12]. Besides, the TGI in assay [13] was > 100 µM; in assay [14] it was 65.9 µM; in [15] it was > 100 µM; in assay [16] it was > 100 µM; in assay [17], 42.8 µM; in [18] it was 40 µM.
For `O=C1CNC(=O)/C(=C/c2c[nH]c3ccccc23)N1`, the TGI in [1], in assay [2], in assay [3], in assay [4], in [5] and in [19] was > 100 µM in each case. Also, the TGI in assay [8], in assay [9], in assay [10], in [11], in assay [12] and in assay [13] was > 100 µM throughout. The TGI in assay [14], in assay [15], in assay [16], in [17] and in assay [18] was > 100 µM throughout.
As for `Cc1cn(C2C=CC(COP(=O)(OCc3ccc([N+](=O)[O-])o3)N(C)CCCCCl)O2)c(=O)[nH]c1=O` (configuration not stated), the TGI amounted to 31.1 µM in [1]; 24.1 µM in [2]; 13.5 µM in assay [3]; 21.6 µM in [4]; 3.26 µM in [5]; 4.83 µM in assay [6]. In addition, the TGI came to 9.87 µM in [7]; 23.6 µM in assay [8]; 27 µM in [9]; 17.3 µM in assay [10]; 30 µM in assay [11]; 22.4 µM in [12]. In addition, the TGI in [13] was found to be 17.2 µM; in [14] it was 9.89 µM; in assay [15] it was 12.7 µM; in [17] it was 18.4 µM; in [18] it was 22.8 µM.
As to `Cn1c(=O)c2sc3c4sc5c(=O)n(C)c6ccccc6c5c4sc3c2c2ccccc21`, the TGI in [1], in [2], in [4], in assay [5], in [6] and in [7] was > 100 µM in each case. The TGI in assay [19], in [8], in [9], in [10], in assay [12] and in [13] was > 100 µM throughout. Further, the TGI in [14], in assay [15], in assay [16], in assay [17] and in assay [18] was > 100 µM each time.
Take `CC1=NN(c2nc(N)nc(CSc3cc(Cl)c(C)cc3S(N)(=O)=O)n2)C(C)(C)C1`: the TGI in assay [1] is 0.953 µM; in [2], > 10 µM; in [3], > 10 µM; in assay [4], > 10 µM; in [5], > 10 µM; in assay [7], > 10 µM. Further, the TGI in [19], in assay [8], in [9], in assay [10], in assay [11] and in assay [12] was > 10 µM each time. The TGI in assay [13], in [14], in [15], in assay [16], in assay [17] and in assay [18] was > 10 µM in each case.
For the compound `COc1cc2cc(C(=O)N3CC(CCl)c4ccc([N+](C)(C)Cc5ccc([N+](=O)[O-])cc5)cc43)[nH]c2c(OC)c1OC` (configuration not stated), the TGI was found to be 5.46 µM in [2]; 5.61 µM in assay [4]; 3.31 µM in assay [5]; 2.31 µM in assay [6]; 14.2 µM in [7]; 3.5 µM in [19]. In addition, the TGI in [8] amounted to 4 µM; in [9], 5.83 µM; in assay [10], 40.5 µM; in assay [11], 15.3 µM; in [12] it was 26.5 µM; in [13], 13.6 µM. Moreover, the TGI in assay [14] was 47 µM; in [16], 29.3 µM; in assay [18] it was > 100 µM.
For the compound `COC1=N[C@H](C(C)C)C(OC)=N[C@H]1Cc1ccc(C[C@@H]2N=C(OC)[C@@H](C(C)C)N=C2OC)s1`, the TGI is > 100 µM in assay [1]; > 100 µM in assay [2]; > 100 µM in assay [3]; > 100 µM in [4]; 47.8 µM in assay [5]; 51 µM in assay [6]. Further, the TGI in assay [7] is > 100 µM; in assay [8], > 100 µM; in [9], 96.3 µM; in assay [10] it was > 100 µM; in [11] it was > 100 µM; in assay [12] it was > 100 µM. In addition, the TGI in assay [13] was > 100 µM; in [14], > 100 µM; in assay [15], > 100 µM; in assay [16] it was > 100 µM; in assay [17], 97.1 µM; in assay [18], > 100 µM.
In the case of `Cn1c2c(c3ccccc31)CCN=C2C1CCCOC1=O` (configuration not stated), the TGI in assay [1], in assay [2], in assay [3], in assay [5], in [6] and in [7] was > 100 µM in each case. For the same compound, the TGI in assay [19], in assay [8], in assay [9], in assay [10], in assay [12] and in assay [13] was > 100 µM each time. For the same compound, the TGI in assay [14], in [15], in [16], in assay [17] and in [18] was > 100 µM throughout.
